Key:
[1] = Determination of the microsomal half-life / microsomal clearance; assay type: in vitro ADME; details: human liver microsomes, 0.5 μM test substance, 0.25 mg microsomal protein/ml, pH 7.4, 37° C.
Procedure: The metabolic stability of the compounds of the invention was determined in the following assay.
The test substances were incubated in a concentration of 0.5 μM as follows:
0.5 μM test substance are preincubated together with liver microsomes from different species (from rat, human or other species) (0.25 mg of microsomal protein/ml) in 0.05 M potassium phosphate buffer of pH 7.4 in microtiter plates at 37° C. for 5 min. The reaction is started by adding NADPH (1 mg/mL). After 0, 5, 10, 15, 20 and 30 min, 50 μl aliquots are removed, and the reaction is immediately stopped and cooled with the same volume of acetonitrile. The samples are frozen until analyzed. The remaining concentration of undegraded test substance is determined by MSMS. The half-life (T1/2) is determined from the gradient of the signal of test substance/unit time plot, it being possible to calculate the half-life of the test substance, assuming first order kinetics, from the decrease in the concentration of the compound with time. The microsomal clearance (mCl) is calculated from mCl=1n2/T1/2/(content of microsomal protein in mg/ml)×1000 [[…]] (modified from references: Di, The Society for Biomoleculur Screening, 2003, 453-462; Obach, DMD, 1999 vol 27. N 11, 1350-1359).

[2] = biological target: T1, human dopamine D3 receptors (Homo sapiens, UniProt P35462); experiment: Dopamine D3 receptor binding, [125I]-iodosulpride displacement; details: membranes of HEK-293 cells with human D3 receptors, 0.1 nM [125I]-iodosulpride
T1 construct: expressed in transfected cells; host or cells: HEK-293
T1 sequence (P35462 whole entry): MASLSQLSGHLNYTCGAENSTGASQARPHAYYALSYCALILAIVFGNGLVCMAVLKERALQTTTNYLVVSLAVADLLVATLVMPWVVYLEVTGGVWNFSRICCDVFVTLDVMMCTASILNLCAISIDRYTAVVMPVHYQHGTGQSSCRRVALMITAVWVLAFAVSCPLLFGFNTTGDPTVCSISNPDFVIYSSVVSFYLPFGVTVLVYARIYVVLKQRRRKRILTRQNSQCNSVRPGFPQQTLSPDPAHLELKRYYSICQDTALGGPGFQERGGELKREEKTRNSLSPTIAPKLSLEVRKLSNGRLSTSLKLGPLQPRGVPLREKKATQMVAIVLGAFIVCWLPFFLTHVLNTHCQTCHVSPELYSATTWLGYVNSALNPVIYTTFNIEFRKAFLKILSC
Procedure: (§1) The substance to be tested was either dissolved in methanol/Chremophor® (BASF SE) or in dimethyl sulfoxide and then diluted with water to the desired concentration.
(§2) Each assay mixture was run in triplicate. • The incubation buffer contained 50 mM tris, 120 mM NaCl, 5 mM KCl, 2 mM CaCl2, 2 mM MgCl2 and 0.1% bovine serum albumin, 10 μM quinolone and 0.1% ascorbic acid (prepared fresh daily). […] Each assay mixture was run in triplicate. • The incubation buffer contained 50 mM tris, 120 mM NaCl, 5 mM KCl, 2 mM CaCl2, 2 mM MgCl2 and 0.1% bovine serum albumin. The buffer was adjusted to pH 7.4 with HCl. c) Measurement and Analysis: • After having been incubated at 25° C. for 60 minutes, the assay mixtures were filtered through a Whatman GF/B glass fiber filter under vacuum using a cell collecting device. The filters were transferred to scintillation viols using a filter transfer system. After 4 ml of Ultima Gold® (Packard) have been added, the samples were shaken for one hour and the radioactivity was then counted in a Beta-Counter (Packard, Tricarb 2000 or 2200CA).

[3] = biological target: T2, human dopamine D2L receptors (long isoform) (Homo sapiens, UniProt P14416); experiment: Dopamine D2L receptor binding, [125I]-iodospiperone displacement; details: selectivity ratio Ki (D2L)/Ki (D3)
T2 construct: expressed in transfected cells; host or cells: HEK-293
T2 sequence (P14416 whole entry, canonical isoform): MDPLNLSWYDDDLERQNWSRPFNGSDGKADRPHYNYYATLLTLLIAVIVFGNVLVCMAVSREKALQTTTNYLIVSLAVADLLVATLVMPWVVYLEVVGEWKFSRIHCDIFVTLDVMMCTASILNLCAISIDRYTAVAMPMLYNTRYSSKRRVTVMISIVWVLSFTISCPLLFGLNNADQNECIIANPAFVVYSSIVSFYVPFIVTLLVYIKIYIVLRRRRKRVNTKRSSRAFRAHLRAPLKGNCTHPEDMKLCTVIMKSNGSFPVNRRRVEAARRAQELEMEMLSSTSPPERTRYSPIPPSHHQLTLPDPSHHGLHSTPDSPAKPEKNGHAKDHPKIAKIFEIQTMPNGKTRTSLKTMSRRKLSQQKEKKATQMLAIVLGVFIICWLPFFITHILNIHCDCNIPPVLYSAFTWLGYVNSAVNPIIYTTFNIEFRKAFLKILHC
Procedure: as §1, §2

SMILES | Human mCl [1] | Ki [2] [nM] | D2/D3, Ki (D2L)/Ki (D3) [3]
COCCc1cc(N2CCN(CC[C@H]3CC[C@@H](NC(=O)[C@H]4CC[C@@H](O)CC4)CC3)CC2)nc(C(C)(C)C)n1 [Compound 5, Cis-N-[cis-4-[2-[4-[2-tert-butyl-6-(2-methoxyethyl)pyrimidin-4-yl]piperazin-1-yl]ethyl]cyclohexyl]-4-hydroxy-cyclohexanecarboxamide] | ∘ (∘: >120 μl min^−1 mg^−1) | < 50 | ++ (++>20)
CC(C)(C)c1nc(C2CCC2)cc(N2CCN(CC[C@H]3CC[C@@H](NC(=O)[C@H]4CC[C@H](O)CC4)CC3)CC2)n1 [Compound 6, trans-N-[cis-4-[2-[4-(2-tert-butyl-6-cyclobutyl-pyrimidin-4-yl)piperazin-1-yl]ethyl]cyclohexyl]-4-hydroxy-cyclohexanecarboxamide] | + (+: 20-120 μl min^−1 mg^−1) | < 10 | +++ (+++>50)
COCCc1cc(N2CCN(CC[C@H]3C[C@H](NC(=O)[C@H]4CC[C@H](O)CC4)C3)CC2)nc(C(C)(C)C)n1.O=C(O)C(F)(F)F [Compound 7, Trans-N-[trans-3-[2-[4-[2-tert-butyl-6-(2-methoxyethyl)pyrimidin-4-yl]piperazin-1-yl]ethyl]cyclobutyl]-4-hydroxy-cyclohexanecarboxamide; 2,2,2-trifluoroacetic acid] | + (+: 20-120 μl min^−1 mg^−1) | < 10 | +++ (+++>50)
COCCc1cc(N2CCN(CC[C@H]3C[C@@H](NC(=O)[C@H]4CC[C@H](O)CC4)C3)CC2)nc(C(C)(C)C)n1.O=C(O)C(F)(F)F [Compound 8, trans-N-[cis-3-[2-[4-[2-tert-butyl-6-(2-methoxyethyl)pyrimidin-4-yl]piperazin-1-yl]ethyl]cyclobutyl]-4-hydroxy-cyclohexanecarboxamide; 2,2,2-trifluoroacetic acid] | + (+: 20-120 μl min^−1 mg^−1) | < 10 | +++ (+++>50)
CC(C)(C)c1nc(C2CCC2)cc(N2CCN(CC[C@H]3C[C@H](NC(=O)[C@H]4CC[C@H](O)CC4)C3)CC2)n1 [Compound 9, Trans-N-[trans-3-[2-[4-(2-tert-butyl-6-cyclobutyl-pyrimidin-4-yl)piperazin-1-yl]ethyl]cyclobutyl]-4-hydroxy-cyclohexanecarboxamide] | + (+: 20-120 μl min^−1 mg^−1) | < 10 | +++ (+++>50)
CC(C)(C)c1nc(C2CCC2)cc(N2CCN(CC[C@H]3C[C@@H](NC(=O)[C@H]4CC[C@H](O)CC4)C3)CC2)n1 [Compound 10, Trans-N-[cis-3-[2-[4-(2-tert-butyl-6-cyclobutyl-pyrimidin-4-yl)piperazin-1-yl]ethyl]cyclobutyl]-4-hydroxy-cyclohexanecarboxamide] | + (+: 20-120 μl min^−1 mg^−1) | < 10 | +++ (+++>50)
COCCc1cc(N2CCN(CC[C@H]3C[C@@H](NC(=O)[C@H]4CC[C@@H](O)CC4)C3)CC2)nc(C(C)(C)C)n1 [Compound 12, Cis-N-[cis-3-[2-[4-[2-tert-butyl-6-(2-methoxyethyl)pyrimidin-4-yl]piperazin-1-yl]ethyl]cyclobutyl]-4-hydroxy-cyclohexanecarboxamide] | + (+: 20-120 μl min^−1 mg^−1) | < 50 | +++ (+++>50)
CC(C)(C)c1nc(C2CCC2)cc(N2CCN(CC[C@H]3CC[C@H](NC(=O)[C@H]4C[C@@H](O)C4)CC3)CC2)n1 [Compound 13, Cis-N-[trans-4-[2-[4-(2-tert-butyl-6-cyclobutyl-pyrimidin-4-yl)piperazin-1-yl]ethyl]cyclohexyl]-3-hydroxy-cyclobutanecarboxamide] | ∘ (∘: >120 μl min^−1 mg^−1) | < 10 | ++ (++>20)

Source: patent publication US9388141B2, “Acylaminocycloalkyl compounds suitable for treating disorders that respond to modulation of dopamine D3 receptor” (AbbVie Deutschland GmbH & Co. KG, priority 2013, dated 2016)
